Values of other authors in publication PMC7687107 (Chemmedchem, 2020).

Target: tRNA guanine transglycosylase (TGT) (Zymomonas mobilis, UniProt P28720)
Experiment: SPR
Type: binding

Sequence of tRNA guanine transglycosylase (TGT) (P28720 2-386): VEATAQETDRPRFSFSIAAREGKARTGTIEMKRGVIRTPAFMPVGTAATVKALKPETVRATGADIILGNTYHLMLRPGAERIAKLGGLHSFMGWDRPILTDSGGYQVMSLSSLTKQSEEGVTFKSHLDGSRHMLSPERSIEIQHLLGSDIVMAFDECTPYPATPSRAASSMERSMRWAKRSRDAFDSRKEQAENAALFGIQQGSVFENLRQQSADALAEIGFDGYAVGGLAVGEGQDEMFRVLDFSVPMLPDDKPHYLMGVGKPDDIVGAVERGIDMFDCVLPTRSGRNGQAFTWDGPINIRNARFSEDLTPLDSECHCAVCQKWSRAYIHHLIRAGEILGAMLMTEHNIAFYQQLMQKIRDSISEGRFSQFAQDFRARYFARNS

Q: Which Kd does the source give for `CNc1nc2c(CCC3OC(OC)C(O)C3O)c3[nH]c(N)nc(=O)c3cc2[nH]1` (stereo not shown) [compound 1, 6‐amino‐4‐[2‐(3,4‐dihydroxy‐5‐methoxyoxolan‐2‐yl)ethyl]‐2‐(methylamino)‐1H,5H‐imidazo[4,5‐g]quinazolin‐8‐one] here?
A: Its Kd is 68 ± 5 nM.
